Test results taken from US20190225650A1, “PEPTIDOMIMETIC MACROCYCLES AND USE THEREOF IN REGULATING HIF1ALPHA” (AILERON THERAPEUTICS, INC., priority 2013, published 2019).
Bridge positions count the residues as written; N and C are the ends. Square brackets hold non-standard residues; d marks the D form. Peptide text beside a SMILES is read from it. R8 = C=CCCCCCC[C@@](C)(N)C(=O)O; S5 = C=CCCC[C@](C)(N)C(=O)O; Nle = CCCC[C@H](N)C(=O)O

How the values were obtained:
[1] = target: T1, flag-tagged HIF1α (AA 786-826) / His6-tagged p300 (AA 323-423) complex (Homo sapiens, UniProt Q09472); experiment: HIF1α p300 displacement assay (TR FRET, +CHAPS); type: binding; details: read-out: IC50 (nM) (HIF1α_p300 Displacement + CHAPS)
T1 construct: His6-tagged p300 (AA 323-423); made in house; host or cells: E. coli (pETDuet vector)
Summary of the method: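 In this TR-FRET displacement format, peptides compete HIF1α C-terminal transactivation domain off p300-CH. They were preincubated 1 h at room temperature with 300 nM complex in HEPES pH 7.4/NaCl buffer with 7.5 mM CHAPS and 1 mM DTT. Anti-His-D2 (4 nM) and anti-Flag-K (0.5 μM) followed for 2 h, and a one-site fit of the fluorescence ratio gave IC50.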

HRE-bla ME-180 cells [2] = experiment: Cell proliferation assay (viability, MTT, 1% FBS); type: cell-based, human
Summary of the method: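 Viable cell number was measured with the CellTiter 96 (MTT) kit after compounds were applied for a 16 h normoxic (21% O2) pretreatment, followed by further normoxic or hypoxic (1% O2) culture. Cells: 2×10^4 ME-180 per well, Opti-MEM + 1% FBS, 0.5% DMSO vehicle.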

HRE-bla ME-180 cells [3] = experiment: Reporter gene assay (HRE-bla ME-180 HIF reporter, GeneBLAzer); type: cell-based, human; details: for EC50: 24 hour normoxia
Summary of the method: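 A FRET β-lactamase readout of HIF transcription was used. After compound treatment in 0.3% DMSO/media under normoxic conditions, 20 μl of 6× LiveBLAzer-FRET B/G (CCF4-AM) substrate was added. Plates sat 3 hr at room temperature in the dark and were read at 409 Ex/460Em and 409Ex/530Em on a Synergy 2. Inhibition was compared against DMSO vehicle controls, with chetomin as positive control.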

Structure (SMILES)	IC50 [1] [nM]	Viability 1% FBS AVG (MTT V3-24 hr Normoxia) (μM) (HRE-bla ME-180 cells [2])	18 h Avg % max inhibition at top conc (HIF Rptr-24 hrs normoxia) (μM) (HRE-bla ME-180 cells [3])	EC50 (HRE-bla ME-180 cells [3]) [µM]
CCCC[C@H](NC(=O)[C@H](CCC(=O)O)NC(=O)[C@]1(C)CCCC=CCCCCCC[C@@](C)(NC(=O)[C@H](CCC(=O)O)NC(=O)[C@H](CC(=O)O)NC(=O)[C@@H](NC(=O)[C@H](CC(N)=O)NC(=O)[C@@H](NC(=O)[C@]2(C)CCCC=CCCCCCC[C@@](C)(NC(=O)[C@H](CCC(=O)O)NC(=O)CNC(=O)[C@H](CCC(N)=O)NC(=O)[C@H](CC(C)C)NC(=O)[C@H](CC(C)C)NC(C)=O)C(=O)N[C@@H](CC(C)C)C(=O)N[C@@H](CC(C)C)C(=O)N[C@@H](CCCNC(=N)N)C(=O)N[C@@H](C)C(=O)N[C@@H](CC(C)C)C(=O)N[C@@H](CC(=O)O)C(=O)N2)C(C)C)[C@@H](C)CC)C(=O)N[C@@H](C(C)C)C(=O)N[C@@H](CC(C)C)C(=O)N[C@@H](CCCC)C(=O)N[C@@H](CO)C(=O)N[C@@H](CC(C)C)C(=O)N[C@@H](C(C)C)C(=O)N1)C(=O)N[C@@H](C)C(=O)N[C@@H](CC(C)C)C(N)=O [SP-373] (Ac-LLQGE[R8]LLRALD[S5]VNIDE[R8]VL[Nle]SLV[S5]E[Nle]AL-NH2; staple 6-13, 19-26)	200 to 400	++++ (≥30: ++++)	+++ (≤25 but <50: +++)	> 30
CCCC[C@H](NC(=O)[C@H](CCC(=O)O)NC(=O)[C@]1(C)CCCC=CCCCCCC[C@@](C)(NC(=O)[C@H](CCC(=O)O)NC(=O)[C@H](CC(=O)O)NC(=O)[C@@H](NC(=O)[C@H](CC(N)=O)NC(=O)[C@@H](NC(=O)[C@H](CCC(N)=O)NC(=O)[C@H](CC(=O)O)NC(=O)[C@H](CC(C)C)NC(=O)[C@H](C)NC(=O)[C@]2(C)CCCC=CCCC[C@](C)(NC(=O)CNC(=O)[C@H](CCC(N)=O)NC(=O)[C@H](CC(C)C)NC(=O)[C@H](CC(C)C)NC(C)=O)C(=O)N[C@@H](CCC(=O)O)C(=O)N[C@@H](CC(C)C)C(=O)N[C@@H](CC(C)C)C(=O)N2)C(C)C)[C@@H](C)CC)C(=O)N[C@@H](C(C)C)C(=O)N[C@@H](CC(C)C)C(=O)N[C@@H](CCCC)C(=O)N[C@@H](CO)C(=O)N[C@@H](CC(C)C)C(=O)N[C@@H](C(C)C)C(=O)N1)C(=O)NCC(N)=O [SP-343] (Ac-LLQG[S5]ELL[S5]ALDQVNIDE[R8]VL[Nle]SLV[S5]E[Nle]G-NH2; staple 5-9, 19-26)	200 to 400	++++ (≥30: ++++)	+ (<10: +)	> 30
CC[C@H](C)[C@H](NC(=O)[C@H](Cc1ccccc1)NC(C)=O)C(=O)N[C@@H](CC(=O)O)C(=O)N[C@@H](CCC(=O)O)C(=O)N[C@@]1(C)CCCC=CCCC[C@@](C)(C(=O)N[C@@H](CC(C)C)C(=O)N[C@H](C(=O)N[C@H](C(=O)N[C@@H](CCC(=O)O)C(=O)N[C@@H](CCSC)C(=O)N[C@@H](C)C(=O)N[C@@H](C)C(N)=O)[C@@H](C)CC)C(C)C)NC(=O)[C@H](CCSC)NC(=O)[C@H](CC(C)C)NC(=O)[C@H](C(C)C)NC1=O [SP-116] (Ac-FIDE[S5]VLM[S5]LVIEMAA-NH2; staple 5-9)	> 700	++++ (≥30: ++++)	+++ (≤25 but <50: +++)	> 30
CCCC[C@H](NC(=O)[C@H](CCC(=O)O)NC(=O)[C@]1(C)CCCC=CCCCCCC[C@@](C)(NC(=O)[C@H](CCC(=O)O)NC(=O)[C@H](CC(=O)O)NC(=O)[C@@H](NC(=O)[C@H](CC(N)=O)NC(=O)[C@@H](NC(=O)[C@]2(C)CCCC=CCCCCCC[C@@](C)(NC(=O)[C@H](C)NC(=O)CNC(=O)[C@H](CCC(N)=O)NC(=O)[C@H](CC(C)C)NC(=O)[C@H](CC(C)C)NC(C)=O)C(=O)N[C@@H](CC(C)C)C(=O)N[C@@H](CC(C)C)C(=O)N[C@@H](CCCNC(=N)N)C(=O)N[C@@H](C)C(=O)N[C@@H](CC(C)C)C(=O)N[C@@H](CC(=O)O)C(=O)N2)C(C)C)[C@@H](C)CC)C(=O)N[C@@H](C(C)C)C(=O)N[C@@H](CC(C)C)C(=O)N[C@@H](CCCC)C(=O)N[C@@H](CO)C(=O)N[C@@H](CC(C)C)C(=O)N[C@@H](C(C)C)C(=O)N1)C(N)=O [SP-353] (Ac-LLQGA[R8]LLRALD[S5]VNIDE[R8]VL[Nle]SLV[S5]E[Nle]-NH2; staple 6-13, 19-26)	≤ 200	++++ (≥30: ++++)	+++ (≤25 but <50: +++)	> 30
CCCC[C@H](NC(=O)[C@H](CC(C)C)NC(=O)[C@@H](NC(=O)[C@H](CCC(=O)O)NC(=O)[C@H](CCC(=O)O)NC(=O)[C@H](CC(=O)O)NC(=O)[C@@H](NC(=O)[C@H](Cc1ccccc1)NC(C)=O)[C@@H](C)CC)C(C)C)C(=O)N[C@@]1(C)CCCC=CCCC[C@@](C)(C(=O)N[C@@H](CCCC)C(=O)N[C@@H](C)C(=O)N[C@@H](Cc2ccccc2)C(N)=O)NC(=O)[C@H]([C@@H](C)CC)NC(=O)[C@H](C(C)C)NC(=O)[C@H](CC(C)C)NC1=O [SP-220] (Ac-FIDEEVL[Nle][S5]LVI[S5][Nle]AF-NH2; staple 9-13)	> 700	++++ (≥30: ++++)	+ (<10: +)	> 30
CCCC[C@H](NC(=O)[C@H](Cc1ccccc1)NC(=O)[C@@H](NC(=O)[C@H](C)NC(=O)[C@H](CCC(N)=O)NC(=O)[C@H](CC(=O)O)NC(=O)[C@@H](NC(=O)[C@H](Cc1ccccc1)NC(C)=O)[C@@H](C)CC)C(C)C)C(=O)N[C@@]1(C)CCCC=CCCC[C@@](C)(C(=O)N[C@@H](CCCC)C(=O)N[C@@H](C)C(=O)N[C@@H](CC(C)C)C(=O)N[C@@H](CC(C)C)C(N)=O)NC(=O)[C@H]([C@@H](C)CC)NC(=O)[C@H](C(C)C)NC(=O)[C@H](CO)NC1=O [SP-252] (Ac-FIDQAVF[Nle][S5]SVI[S5][Nle]ALL-NH2; staple 9-13)	> 700	++ (≤5 but <15: ++)	++++ (≥50: ++++)	≤ 5
CC[C@H](C)[C@H](NC(=O)[C@H](Cc1ccccc1)NC(C)=O)C(=O)N[C@@H](CC(=O)O)C(=O)N[C@@H](CCC(=O)O)C(=O)N[C@]1(C)CCCCCCC=CCCC[C@@](C)(C(=O)N[C@@H](CCC(=O)O)C(=O)N[C@@H](CCSC)C(=O)N[C@@H](C)C(=O)N[C@@H](CC(C)C)C(=O)N[C@@H](CC(=O)O)C(N)=O)NC(=O)[C@H](C(C)C)NC(=O)[C@H](CC(C)C)NC(=O)[C@H](CO)NC(=O)[C@H](CCSC)NC(=O)[C@H](CC(C)C)NC(=O)[C@H](C(C)C)NC1=O [SP-176] (Ac-FIDE[R8]VLMSLV[S5]EMALD-NH2; staple 5-12)	> 700	++++ (≥30: ++++)	++++ (≥50: ++++)	> 30
CCCC[C@H](NC(=O)[C@H](CCC(=O)O)NC(=O)[C@@H](NC(=O)[C@@H](NC(=O)[C@H](CC(C)C)NC(=O)[C@]1(C)CCCC=CCCC[C@](C)(NC(=O)[C@H](CCC(=O)O)NC(=O)[C@H](CC(=O)O)NC(=O)[C@@H](NC(=O)[C@H](Cc2ccccc2)NC(C)=O)[C@@H](C)CC)C(=O)N[C@@H](C)C(=O)N[C@@H](CC(C)C)C(=O)N[C@@H](CCCC)C(=O)N1)C(C)C)[C@@H](C)CC)C(=O)N[C@@H](C)C(=O)N[C@@H](CC(C)C)C(N)=O [SP-138] (Ac-FIDE[S5]AL[Nle][S5]LVIE[Nle]AL-NH2; staple 5-9)	200 to 400	++++ (≥30: ++++)	+++ (≤25 but <50: +++)	> 30
CCCC[C@@H]1NC(=O)[C@H](CC(C)C)NC(=O)[C@H](C(C)C)NC(=O)[C@@](C)(NC(=O)[C@H](CCC(=O)O)NC(=O)[C@H](CC(=O)O)NC(=O)[C@@H](NC(=O)[C@H](Cc2ccccc2)NC(C)=O)[C@@H](C)CC)CCCC=CCCCC2(CCCC=CCCC[C@](C)(C(=O)N[C@@H](C)C(=O)N[C@@H](C)C(=O)N[C@@H](CC(C)C)C(N)=O)NC(=O)[C@H]([C@@H](C)CC)NC(=O)[C@H](C(C)C)NC(=O)[C@H](CC(C)C)NC2=O)NC1=O (stereo partly shown) [SP-211]	200 to 400	++++ (≥30: ++++)	+ (<10: +)	> 30
CCCC[C@H](NC(=O)[C@H](CCC(=O)O)NC(=O)[C@]1(C)CCCC=CCCCCCC[C@@](C)(NC(=O)[C@H](CCC(=O)O)NC(=O)[C@H](CC(=O)O)NC(=O)[C@@H](NC(=O)[C@H](CC(N)=O)NC(=O)[C@@H](NC(=O)[C@H](CCC(N)=O)NC(=O)[C@]2(C)CCCC=CCCC[C@](C)(NC(=O)[C@H](CC(C)C)NC(=O)[C@H](CCC(=O)O)NC(=O)[C@H](CCC(=O)O)NC(C)=O)C(=O)N[C@@H](CCCNC(=N)N)C(=O)N[C@@H](C)C(=O)N[C@@H](CC(C)C)C(=O)N2)C(C)C)[C@@H](C)CC)C(=O)N[C@@H](C(C)C)C(=O)N[C@@H](CC(C)C)C(=O)N[C@@H](CCCC)C(=O)N[C@@H](CO)C(=O)N[C@@H](CC(C)C)C(=O)N[C@@H](C(C)C)C(=O)N1)C(N)=O [SP-366] (Ac-EEL[S5]RAL[S5]QVNIDE[R8]VL[Nle]SLV[S5]E[Nle]-NH2; staple 4-8, 15-22)	> 700	++++ (≥30: ++++)	++++ (≥50: ++++)	≤ 5
